Details: 283.15 K, Liquid, Vibrating tube method

CCCCCCCCCC [decane]
Details	mass density [kg/m3]
14704 kPa	747.6
14722 kPa	747.7
14741 kPa	747.7
14759 kPa	747.7
14777 kPa	747.6
14795 kPa	747.6
14826 kPa	747.7
14844 kPa	747.7
14862 kPa	747.7
14881 kPa	747.8
14903 kPa	747.7
14925 kPa	747.8
14941 kPa	747.8
14963 kPa	747.8
14979 kPa	747.8
14998 kPa	747.9
15017 kPa	748
15036 kPa	747.9
15055 kPa	747.9
15077 kPa	747.9
15100 kPa	747.8
15119 kPa	747.9
15139 kPa	747.9
15239 kPa	748
15312 kPa	748
15351 kPa	748.1
15368 kPa	748.1
15391 kPa	748.2
15415 kPa	748
15442 kPa	748.1
15466 kPa	748.3
15486 kPa	748.1
15507 kPa	748.2
15524 kPa	748.3
15545 kPa	748.3
15569 kPa	748.3
15590 kPa	748.2
15617 kPa	748.3
15645 kPa	748.4
15669 kPa	748.2
15693 kPa	748.3
15718 kPa	748.3
15743 kPa	748.2
15771 kPa	748.4
15799 kPa	748.3
15821 kPa	748.3
15850 kPa	748.3
15874 kPa	748.4
15899 kPa	748.4
15920 kPa	748.6
15949 kPa	748.5
15981 kPa	748.6
16007 kPa	748.4
16028 kPa	748.6
16083 kPa	748.6
16109 kPa	748.6
16135 kPa	748.5
16168 kPa	748.6
16191 kPa	748.6
16221 kPa	748.6
16257 kPa	748.7
16288 kPa	748.7
16310 kPa	748.7
16344 kPa	748.8
16378 kPa	748.7
16405 kPa	748.8
16433 kPa	748.8
16467 kPa	748.7
16494 kPa	748.9
16528 kPa	748.8
16560 kPa	748.9
16587 kPa	749
16619 kPa	748.8
16643 kPa	749
16667 kPa	749
16703 kPa	748.8
16739 kPa	749
16759 kPa	748.8
16796 kPa	749
16824 kPa	749
16852 kPa	749.1
16880 kPa	749
16905 kPa	748.9
16938 kPa	749.2
16967 kPa	749.2
16993 kPa	749.1
17030 kPa	749.2
17063 kPa	749.1
17088 kPa	749.1
17127 kPa	749.2
17153 kPa	749.2
17192 kPa	749.2
17213 kPa	749.3
17240 kPa	749.3
17267 kPa	749.4
17293 kPa	749.4
17316 kPa	749.4
17343 kPa	749.4
17366 kPa	749.5
17390 kPa	749.4
17422 kPa	749.4
17451 kPa	749.3
17470 kPa	749.5
17498 kPa	749.4
17521 kPa	749.4
17549 kPa	749.4
17626 kPa	749.5
17652 kPa	749.5
17711 kPa	749.6
17734 kPa	749.6
17770 kPa	749.5
17792 kPa	749.7
17815 kPa	749.7
17841 kPa	749.8
17864 kPa	749.7
17898 kPa	749.9
17925 kPa	749.6
17948 kPa	749.7
17982 kPa	749.9
18017 kPa	749.8
18044 kPa	749.8
18071 kPa	749.9
18099 kPa	749.9
18130 kPa	749.9
18154 kPa	749.9
18178 kPa	749.9
18210 kPa	750
18246 kPa	750
18305 kPa	750
18383 kPa	750
18574 kPa	750.2
18652 kPa	750.2
18691 kPa	750.2
18719 kPa	750.1
18746 kPa	750.2
18770 kPa	750.3
18793 kPa	750.3
